Experiment in all cases: biochemical
Common to all, as to design: KINOMEscan active site-directed competition binding assay (DiscoveRx), 456 kinases, per cent of control at 300 nM
Holding throughout (conditions): read-out: Percent of Control (%)

The target in one assay is BRSK1 (Homo sapiens, UniProt Q8TDC3). Put shortly:
(§1)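 Compounds at 300 nmol/L screened against 456 kinases by KINOMEscan, a competition binding assay measuring displacement at the kinase active site.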

For the next assay, the target named is GRK7 (Homo sapiens, UniProt Q8WTQ7). The essentials: as §1
The next assay concerns the target CSNK1G3 (Homo sapiens, UniProt Q9Y6M4). Put shortly:
as §1

The next assay has as its target GRK4 (Homo sapiens, UniProt P32298). The essentials: as §1
A further assay addresses SIK2 (Homo sapiens, UniProt Q9H0K1). Put shortly: as §1
The next assay addresses T1, ZAK (Homo sapiens, UniProt Q9NYL2).
T1 construct: gene MAP3K20
Put shortly:
as §1

In another assay the target is T2, YES (Homo sapiens, UniProt P07947).
T2 construct: gene YES1
The essentials: as §1

Assay [1] addresses T3, ABL1(F317L)-phosphorylated (Homo sapiens, UniProt P00519, F317L).
T3 construct: phosphorylated
Put shortly: as §1

For the next assay, the target named is T4, ARK5 (Homo sapiens, UniProt O60285).
T4 construct: gene NUAK1
The essentials: as §1

Another assay addresses T5, NDR2 (Homo sapiens, UniProt Q9Y2H1).
T5 construct: gene STK38L
The essentials: as §1

The next assay addresses EPHA8 (Homo sapiens, UniProt P29322). Put shortly: as §1
A further assay deals with T6, TIE2 (Homo sapiens, UniProt Q02763).
T6 construct: gene TEK
The essentials: as §1

Assay [2] addresses T7, RPS6KA5(Kin.Dom.2-C-terminal) (Homo sapiens, UniProt O75582).
T7 construct: Kin.Dom.2-C-terminal
Put shortly:
as §1

In another assay the target is T8, JNK2 (Homo sapiens, UniProt P45984).
T8 construct: gene MAPK9
T8 sequence (P45984 whole entry): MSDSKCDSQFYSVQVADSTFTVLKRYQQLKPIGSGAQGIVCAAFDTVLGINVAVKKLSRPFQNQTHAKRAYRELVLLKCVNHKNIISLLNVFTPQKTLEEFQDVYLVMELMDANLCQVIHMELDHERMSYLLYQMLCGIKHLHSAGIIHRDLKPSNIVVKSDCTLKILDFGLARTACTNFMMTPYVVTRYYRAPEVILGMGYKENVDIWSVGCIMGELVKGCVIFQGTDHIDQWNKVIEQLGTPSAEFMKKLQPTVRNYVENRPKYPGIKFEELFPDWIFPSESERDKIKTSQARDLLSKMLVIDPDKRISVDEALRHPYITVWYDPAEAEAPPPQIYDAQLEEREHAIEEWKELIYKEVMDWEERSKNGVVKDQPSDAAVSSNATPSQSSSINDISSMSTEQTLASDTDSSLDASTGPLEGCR
Put shortly: as §1

Another assay addresses LTK (Homo sapiens, UniProt P29376). Put shortly: as §1
A further assay deals with SYK (Homo sapiens, UniProt P43405). Put shortly: as §1
The next assay deals with T9, MEK2 (Homo sapiens, UniProt P36507).
T9 construct: gene MAP2K2
T9 sequence (P36507 whole entry): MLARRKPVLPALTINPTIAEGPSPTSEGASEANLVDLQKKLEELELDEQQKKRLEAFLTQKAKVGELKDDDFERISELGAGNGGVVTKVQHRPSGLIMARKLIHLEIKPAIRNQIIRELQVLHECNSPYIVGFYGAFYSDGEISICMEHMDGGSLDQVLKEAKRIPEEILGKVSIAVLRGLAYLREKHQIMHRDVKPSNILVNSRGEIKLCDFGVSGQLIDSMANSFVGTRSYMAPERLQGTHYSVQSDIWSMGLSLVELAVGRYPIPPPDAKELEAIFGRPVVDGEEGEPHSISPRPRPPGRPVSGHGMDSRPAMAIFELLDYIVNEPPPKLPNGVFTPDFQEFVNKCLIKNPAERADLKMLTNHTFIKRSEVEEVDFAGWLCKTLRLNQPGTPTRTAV
Put shortly:
as §1

The target of a further assay is WEE1 (Homo sapiens, UniProt P30291). Put shortly:
as §1

In the next assay the target is MYLK2 (Homo sapiens, UniProt Q9H1R3). Put shortly: as §1
Another assay deals with FLT3-autoinhibited (Homo sapiens, UniProt P36888). Put shortly:
as §1

Another assay has as its target SBK1 (Homo sapiens, UniProt Q52WX2). The essentials: as §1
A further assay has as its target ALK (Homo sapiens, UniProt Q9UM73). The essentials:
as §1

The record followed here is publication PMC5862592, “CDK8/19 inhibition induces premature G1/S transition and ATR-dependent cell death in prostate cancer cells” (Oncotarget, 2018).

Where two headings read alike, the source gives them in different places.

Chain of BRSK1 (Q8TDC3 whole entry): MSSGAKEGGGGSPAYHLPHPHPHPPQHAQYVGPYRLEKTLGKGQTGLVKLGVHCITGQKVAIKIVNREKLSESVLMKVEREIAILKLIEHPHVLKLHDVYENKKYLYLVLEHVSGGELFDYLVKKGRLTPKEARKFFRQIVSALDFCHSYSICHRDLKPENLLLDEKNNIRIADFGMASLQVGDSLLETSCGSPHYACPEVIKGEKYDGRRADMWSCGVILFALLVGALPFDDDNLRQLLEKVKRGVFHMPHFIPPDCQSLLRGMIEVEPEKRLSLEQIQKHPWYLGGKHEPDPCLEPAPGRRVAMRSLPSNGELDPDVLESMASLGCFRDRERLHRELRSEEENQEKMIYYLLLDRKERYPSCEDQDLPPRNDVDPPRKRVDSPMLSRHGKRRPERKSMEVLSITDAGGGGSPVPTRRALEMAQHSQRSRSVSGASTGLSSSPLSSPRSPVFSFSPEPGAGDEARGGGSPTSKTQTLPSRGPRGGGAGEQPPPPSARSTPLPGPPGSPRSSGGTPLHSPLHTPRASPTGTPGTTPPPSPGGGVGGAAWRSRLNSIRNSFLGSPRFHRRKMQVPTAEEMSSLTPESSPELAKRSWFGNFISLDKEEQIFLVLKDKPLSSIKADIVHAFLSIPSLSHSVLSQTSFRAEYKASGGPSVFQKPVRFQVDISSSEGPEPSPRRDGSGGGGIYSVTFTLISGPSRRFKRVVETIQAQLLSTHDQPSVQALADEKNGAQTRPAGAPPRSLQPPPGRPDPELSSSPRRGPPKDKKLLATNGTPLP
Chain of EPHA8 (P29322 whole entry): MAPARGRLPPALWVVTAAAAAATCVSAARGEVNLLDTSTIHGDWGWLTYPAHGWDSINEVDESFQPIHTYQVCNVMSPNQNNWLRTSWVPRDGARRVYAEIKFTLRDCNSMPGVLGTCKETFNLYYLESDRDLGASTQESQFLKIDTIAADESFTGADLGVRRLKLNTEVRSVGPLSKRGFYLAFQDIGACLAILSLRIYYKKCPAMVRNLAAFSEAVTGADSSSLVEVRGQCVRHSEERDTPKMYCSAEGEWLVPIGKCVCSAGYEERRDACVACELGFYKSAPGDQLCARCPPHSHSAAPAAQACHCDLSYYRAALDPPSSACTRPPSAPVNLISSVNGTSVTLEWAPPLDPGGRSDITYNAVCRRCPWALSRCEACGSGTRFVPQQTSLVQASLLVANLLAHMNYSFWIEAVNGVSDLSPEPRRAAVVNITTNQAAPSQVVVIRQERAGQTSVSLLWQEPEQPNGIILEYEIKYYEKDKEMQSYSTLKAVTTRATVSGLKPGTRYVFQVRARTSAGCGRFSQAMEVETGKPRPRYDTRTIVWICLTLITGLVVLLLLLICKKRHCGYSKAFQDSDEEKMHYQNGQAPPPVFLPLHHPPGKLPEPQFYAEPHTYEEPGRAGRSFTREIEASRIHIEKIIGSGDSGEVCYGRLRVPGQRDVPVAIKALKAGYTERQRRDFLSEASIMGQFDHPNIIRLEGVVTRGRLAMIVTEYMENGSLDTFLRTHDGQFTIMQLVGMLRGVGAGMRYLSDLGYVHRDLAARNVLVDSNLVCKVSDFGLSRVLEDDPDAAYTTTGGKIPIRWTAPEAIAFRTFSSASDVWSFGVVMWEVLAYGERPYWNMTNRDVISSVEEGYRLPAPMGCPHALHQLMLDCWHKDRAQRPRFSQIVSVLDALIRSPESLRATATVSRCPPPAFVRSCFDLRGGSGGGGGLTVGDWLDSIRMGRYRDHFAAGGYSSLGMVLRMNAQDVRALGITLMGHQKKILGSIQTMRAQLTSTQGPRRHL
Chain of ALK (Q9UM73 whole entry): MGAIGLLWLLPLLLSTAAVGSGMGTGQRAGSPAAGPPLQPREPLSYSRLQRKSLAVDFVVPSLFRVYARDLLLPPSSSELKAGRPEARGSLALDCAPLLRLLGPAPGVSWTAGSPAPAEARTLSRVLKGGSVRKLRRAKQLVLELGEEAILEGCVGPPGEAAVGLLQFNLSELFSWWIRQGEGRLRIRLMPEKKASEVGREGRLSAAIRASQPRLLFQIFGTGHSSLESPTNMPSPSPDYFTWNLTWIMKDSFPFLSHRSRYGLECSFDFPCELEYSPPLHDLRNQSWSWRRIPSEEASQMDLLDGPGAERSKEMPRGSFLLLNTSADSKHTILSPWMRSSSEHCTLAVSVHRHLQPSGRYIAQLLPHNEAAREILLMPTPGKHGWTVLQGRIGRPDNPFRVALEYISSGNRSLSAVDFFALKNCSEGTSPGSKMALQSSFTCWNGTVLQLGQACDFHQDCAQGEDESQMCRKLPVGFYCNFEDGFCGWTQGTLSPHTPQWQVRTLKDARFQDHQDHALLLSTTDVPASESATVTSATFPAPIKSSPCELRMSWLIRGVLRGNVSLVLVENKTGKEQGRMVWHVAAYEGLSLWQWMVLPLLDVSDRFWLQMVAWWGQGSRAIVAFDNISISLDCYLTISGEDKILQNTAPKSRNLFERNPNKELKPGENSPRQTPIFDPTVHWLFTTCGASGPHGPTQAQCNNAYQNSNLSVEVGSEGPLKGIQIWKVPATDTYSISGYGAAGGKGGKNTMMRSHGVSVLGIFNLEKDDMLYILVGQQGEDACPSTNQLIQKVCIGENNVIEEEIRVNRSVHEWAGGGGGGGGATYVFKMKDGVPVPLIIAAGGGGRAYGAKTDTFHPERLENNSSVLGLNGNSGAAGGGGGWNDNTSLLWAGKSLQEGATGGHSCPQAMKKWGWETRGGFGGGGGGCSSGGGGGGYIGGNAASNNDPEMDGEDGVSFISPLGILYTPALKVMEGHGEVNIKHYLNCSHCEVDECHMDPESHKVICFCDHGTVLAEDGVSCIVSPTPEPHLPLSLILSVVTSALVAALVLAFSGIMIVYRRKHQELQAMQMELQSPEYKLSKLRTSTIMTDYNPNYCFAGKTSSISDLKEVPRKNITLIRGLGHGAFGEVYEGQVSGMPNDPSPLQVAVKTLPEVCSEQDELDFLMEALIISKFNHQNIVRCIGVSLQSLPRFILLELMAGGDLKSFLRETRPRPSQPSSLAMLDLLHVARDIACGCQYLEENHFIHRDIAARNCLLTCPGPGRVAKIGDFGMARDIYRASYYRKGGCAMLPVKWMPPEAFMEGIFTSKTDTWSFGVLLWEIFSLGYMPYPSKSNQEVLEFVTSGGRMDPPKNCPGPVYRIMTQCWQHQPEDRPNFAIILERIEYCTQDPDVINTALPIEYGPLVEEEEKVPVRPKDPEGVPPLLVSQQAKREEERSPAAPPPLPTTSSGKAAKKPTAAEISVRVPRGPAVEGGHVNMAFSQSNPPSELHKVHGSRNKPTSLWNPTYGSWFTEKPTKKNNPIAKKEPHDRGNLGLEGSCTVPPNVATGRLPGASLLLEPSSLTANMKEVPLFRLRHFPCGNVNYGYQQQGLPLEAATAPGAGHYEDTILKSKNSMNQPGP
Chain of LTK (P29376 whole entry): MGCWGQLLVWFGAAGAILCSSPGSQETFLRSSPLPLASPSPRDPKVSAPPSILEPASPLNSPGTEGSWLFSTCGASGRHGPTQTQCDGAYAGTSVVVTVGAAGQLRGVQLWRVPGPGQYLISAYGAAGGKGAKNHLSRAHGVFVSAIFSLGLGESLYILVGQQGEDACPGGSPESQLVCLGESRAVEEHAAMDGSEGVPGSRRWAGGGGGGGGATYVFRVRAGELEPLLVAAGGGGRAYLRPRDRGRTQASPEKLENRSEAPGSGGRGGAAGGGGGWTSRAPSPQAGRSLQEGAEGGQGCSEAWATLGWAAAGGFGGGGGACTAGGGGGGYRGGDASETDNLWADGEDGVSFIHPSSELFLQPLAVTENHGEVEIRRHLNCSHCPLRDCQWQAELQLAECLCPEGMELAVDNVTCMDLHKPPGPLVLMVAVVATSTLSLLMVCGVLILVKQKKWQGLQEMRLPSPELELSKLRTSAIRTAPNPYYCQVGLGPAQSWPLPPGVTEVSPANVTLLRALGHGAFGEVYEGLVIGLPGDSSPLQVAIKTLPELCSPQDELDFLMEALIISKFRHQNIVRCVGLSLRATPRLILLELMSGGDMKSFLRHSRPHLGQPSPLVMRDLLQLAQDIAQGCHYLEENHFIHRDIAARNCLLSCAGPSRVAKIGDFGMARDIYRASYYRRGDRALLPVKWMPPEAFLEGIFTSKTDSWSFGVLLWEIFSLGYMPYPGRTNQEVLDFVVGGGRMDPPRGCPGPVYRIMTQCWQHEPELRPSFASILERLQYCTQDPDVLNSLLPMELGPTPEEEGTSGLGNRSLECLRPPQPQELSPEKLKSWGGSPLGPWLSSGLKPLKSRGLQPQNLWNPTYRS

In the case of `Cc1ncccc1Oc1sc(C(N)=O)c2c1-c1c(cnn1C)CC2` [T-474, 1-methyl-8-((2-methylpyridin-3-yl)oxy)-4,5-dihydro-1H-thieno[3,4-g]indazole-6-carboxamide], the remaining binding at 0.3 µM at BRSK1 was found to be 100%; on GRK7, 100%; at CSNK1G3 it was 100%; on GRK4, 100%; on SIK2, 100%; at ZAK, 74%. Moreover, the remaining binding at 0.3 µM on YES is 100%; in [1] it was 100%; at ARK5, 100%; on NDR2, 100%; at EPHA8, 91%; at TIE2, 99%. Besides, the remaining binding at 0.3 µM in [2] worked out at 100%; on JNK2 it was 87%; at LTK it was 100%; on SYK, 100%; on MEK2, 100%; on WEE1, 90%. Further, the remaining binding at 0.3 µM at MYLK2 was 92%; at FLT3-autoinhibited, 78%; at SBK1 it was 91%; at ALK it was 98%.
On to `O=C(/C=C/c1cnccc1-c1ccc(F)cc1)Nc1ccc(CCc2nnco2)cc1` [T-418, (2E)-3-(4-(4-fluorophenyl)pyridin-3-yl)-N-(4-(2-(1,3,4-oxadiazol-2-yl)ethyl)phenyl)acrylamide], for which the remaining binding at 0.3 µM is 100% on BRSK1 (sheet T-418); 80% on GRK7 (sheet T-418); 100% on CSNK1G3 (sheet T-418); 100% at GRK4 (sheet T-418); 100% on SIK2 (sheet T-418); 73% at ZAK (sheet T-418). Also, the remaining binding at 0.3 µM at YES (sheet T-418) was 100%; in [1] (sheet T-418), 100%; on ARK5 (sheet T-418), 100%; at NDR2 (sheet T-418), 100%; at EPHA8 (sheet T-418), 88%; on TIE2 (sheet T-418) it was 85%. The remaining binding at 0.3 µM in assay [2] (sheet T-418) came to 100%; at JNK2 (sheet T-418), 86%; on LTK (sheet T-418), 100%; at SYK (sheet T-418), 100%; at MEK2 (sheet T-418), 100%; on WEE1 (sheet T-418), 90%. Also, the remaining binding at 0.3 µM on MYLK2 (sheet T-418) came to 62%; at FLT3-autoinhibited (sheet T-418), 89%; on SBK1 (sheet T-418), 73%; on ALK (sheet T-418) it was 81%.
